{"source": "the supplement of paper PMC10307832", "assay_in_all_cases": "relative viability (nuclei count vs DMSO), 5 days (fraction); higher = more cells survive", "key": {"201T": {"system": "201T", "summary_of_the_method": "(§1)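 Lung cancer cell lines in 1536-well plates got either a single drug or a fixed anchor-drug dose together with five library-drug doses (not always all listed) in √10 steps, by pin tool, on the day after seeding. Nuclei were counted after 5 days, and relative viability is the treated-to-vehicle ratio of nuclei counts. Values are medians of duplicate plates.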"}, "A-427": {"system": "A-427", "summary_of_the_method": "as §1"}, "ABC-1": {"system": "ABC-1", "summary_of_the_method": "as §1"}, "BEN": {"system": "BEN", "summary_of_the_method": "as §1"}, "H3255": {"system": "H3255", "summary_of_the_method": "as §1"}, "HCC-15": {"system": "HCC-15", "summary_of_the_method": "as §1"}, "LC-2-ad": {"system": "LC-2-ad", "summary_of_the_method": "as §1"}, "LCLC-97TM1": {"system": "LCLC-97TM1", "summary_of_the_method": "as §1"}, "NCI-H1650": {"system": "NCI-H1650", "summary_of_the_method": "as §1"}, "NCI-H1651": {"system": "NCI-H1651", "summary_of_the_method": "as §1"}, "NCI-H1792": {"system": "NCI-H1792", "summary_of_the_method": "as §1"}, "NCI-H1915": {"system": "NCI-H1915", "summary_of_the_method": "as §1"}, "NCI-H1944": {"system": "NCI-H1944", "summary_of_the_method": "as §1"}, "NCI-H2023": {"system": "NCI-H2023", "summary_of_the_method": "as §1"}, "NCI-H2087": {"system": "NCI-H2087", "summary_of_the_method": "as §1"}, "NCI-H441": {"system": "NCI-H441", "summary_of_the_method": "as §1"}, "NCI-H460": {"system": "NCI-H460", "summary_of_the_method": "as §1"}, "NCI-H520": {"system": "NCI-H520", "summary_of_the_method": "as §1"}, "NCI-H596": {"system": "NCI-H596", "summary_of_the_method": "as §1"}, "NCI-H650": {"system": "NCI-H650", "summary_of_the_method": "as §1"}, "NCI-H661": {"system": "NCI-H661", "summary_of_the_method": "as §1"}, "NCI-H727": {"system": "NCI-H727", "summary_of_the_method": "as §1"}, "PC-3 [JPC-3]": {"system": "PC-3 [JPC-3]", "summary_of_the_method": "as §1"}}, "data": [{"smiles": "C[C@@H]1CN(CC(=O)Nc2ccc3c(c2)Cc2cccc(-c4cc(=O)cc(N5CCOCC5)o4)c2S3)C[C@H](C)O1", "note": "+ Nc1ncn([C@H]2C[C@H](O)[C@@H](CO)O2)c(=O)n1 [Decitabine] (partner 2 µM)", "values": [{"measurement": "relative viability", "setting": "201T; first compound 0.04 µM", "value": 0.816}, {"measurement": "relative viability", "setting": "201T; first compound 0.1265 µM", "value": 0.818}, {"measurement": "relative viability", "setting": "201T; first compound 0.4 µM", "value": 0.84}, {"measurement": "relative viability", "setting": "201T; first compound 4 µM", "value": 0.791}, {"measurement": "relative viability", "setting": "A-427; first compound 0.04 µM", "value": 0.533}, {"measurement": "relative viability", "setting": "A-427; first compound 0.1265 µM", "value": 0.605}, {"measurement": "relative viability", "setting": "A-427; first compound 0.4 µM", "value": 0.562}, {"measurement": "relative viability", "setting": "A-427; first compound 4 µM", "value": 0.587}, {"measurement": "relative viability", "setting": "ABC-1; first compound 0.04 µM", "value": 0.303}, {"measurement": "relative viability", "setting": "ABC-1; first compound 0.1265 µM", "value": 0.897}, {"measurement": "relative viability", "setting": "ABC-1; first compound 0.4 µM", "value": 0.947}, {"measurement": "relative viability", "setting": "ABC-1; first compound 4 µM", "value": 1.48}, {"measurement": "relative viability", "setting": "BEN; first compound 0.04 µM", "value": 0.702}, {"measurement": "relative viability", "setting": "BEN; first compound 0.1265 µM", "value": 0.696}, {"measurement": "relative viability", "setting": "BEN; first compound 0.4 µM", "value": 0.81}, {"measurement": "relative viability", "setting": "BEN; first compound 4 µM", "value": 0.735}, {"measurement": "relative viability", "setting": "H3255; first compound 0.04 µM", "value": 0.682}, {"measurement": "relative viability", "setting": "H3255; first compound 0.1265 µM", "value": 0.615}, {"measurement": "relative viability", "setting": "H3255; first compound 0.4 µM", "value": 0.558}, {"measurement": "relative viability", "setting": "H3255; first compound 4 µM", "value": 0.509}, {"measurement": "relative viability", "setting": "HCC-15; first compound 0.04 µM", "value": 0.621}, {"measurement": "relative viability", "setting": "HCC-15; first compound 0.1265 µM", "value": 0.594}, {"measurement": "relative viability", "setting": "HCC-15; first compound 0.4 µM", "value": 0.558}, {"measurement": "relative viability", "setting": "HCC-15; first compound 4 µM", "value": 0.59}, {"measurement": "relative viability", "setting": "LC-2-ad; first compound 0.04 µM", "value": 0.939}, {"measurement": "relative viability", "setting": "LC-2-ad; first compound 0.1265 µM", "value": 0.786}, {"measurement": "relative viability", "setting": "LC-2-ad; first compound 0.4 µM", "value": 0.792}, {"measurement": "relative viability", "setting": "LC-2-ad; first compound 4 µM", "value": 0.628}, {"measurement": "relative viability", "setting": "LCLC-97TM1; first compound 0.1265 µM", "value": 0.231}, {"measurement": "relative viability", "setting": "LCLC-97TM1; first compound 0.4 µM", "value": 0.279}, {"measurement": "relative viability", "setting": "LCLC-97TM1; first compound 4 µM", "value": 0.273}, {"measurement": "relative viability", "setting": "NCI-H1650; first compound 0.04 µM", "value": 0.492}, {"measurement": "relative viability", "setting": "NCI-H1650; first compound 0.1265 µM", "value": 0.44}, {"measurement": "relative viability", "setting": "NCI-H1650; first compound 0.4 µM", "value": 0.488}, {"measurement": "relative viability", "setting": "NCI-H1650; first compound 4 µM", "value": 0.499}, {"measurement": "relative viability", "setting": "NCI-H1651; first compound 0.04 µM", "value": 0.628}, {"measurement": "relative viability", "setting": "NCI-H1651; first compound 0.1265 µM", "value": 0.628}, {"measurement": "relative viability", "setting": "NCI-H1651; first compound 0.4 µM", "value": 0.585}, {"measurement": "relative viability", "setting": "NCI-H1651; first compound 4 µM", "value": 0.599}, {"measurement": "relative viability", "setting": "NCI-H1792; first compound 0.04 µM", "value": 0.627}, {"measurement": "relative viability", "setting": "NCI-H1792; first compound 0.1265 µM", "value": 0.51}, {"measurement": "relative viability", "setting": "NCI-H1792; first compound 0.4 µM", "value": 0.542}, {"measurement": "relative viability", "setting": "NCI-H1792; first compound 4 µM", "value": 0.441}, {"measurement": "relative viability", "setting": "NCI-H1915; first compound 0.04 µM", "value": 0.259}, {"measurement": "relative viability", "setting": "NCI-H1915; first compound 0.1265 µM", "value": 0.279}, {"measurement": "relative viability", "setting": "NCI-H1915; first compound 0.4 µM", "value": 0.283}, {"measurement": "relative viability", "setting": "NCI-H1915; first compound 4 µM", "value": 0.29}, {"measurement": "relative viability", "setting": "NCI-H1944; first compound 0.1265 µM", "value": 0.438}, {"measurement": "relative viability", "setting": "NCI-H1944; first compound 0.4 µM", "value": 0.466}, {"measurement": "relative viability", "setting": "NCI-H1944; first compound 4 µM", "value": 0.457}, {"measurement": "relative viability", "setting": "NCI-H2023; first compound 0.04 µM", "value": 0.197}, {"measurement": "relative viability", "setting": "NCI-H2023; first compound 0.1265 µM", "value": 0.227}, {"measurement": "relative viability", "setting": "NCI-H2023; first compound 0.4 µM", "value": 0.225}, {"measurement": "relative viability", "setting": "NCI-H2023; first compound 4 µM", "value": 0.224}, {"measurement": "relative viability", "setting": "NCI-H2087; first compound 0.04 µM", "value": 0.306}, {"measurement": "relative viability", "setting": "NCI-H2087; first compound 0.1265 µM", "value": 0.336}, {"measurement": "relative viability", "setting": "NCI-H2087; first compound 0.4 µM", "value": 0.267}, {"measurement": "relative viability", "setting": "NCI-H2087; first compound 4 µM", "value": 0.254}, {"measurement": "relative viability", "setting": "NCI-H441; first compound 0.04 µM", "value": 0.249}, {"measurement": "relative viability", "setting": "NCI-H441; first compound 0.1265 µM", "value": 0.222}, {"measurement": "relative viability", "setting": "NCI-H441; first compound 0.4 µM", "value": 0.29}, {"measurement": "relative viability", "setting": "NCI-H441; first compound 4 µM", "value": 0.328}, {"measurement": "relative viability", "setting": "NCI-H460; first compound 0.04 µM", "value": 0.401}, {"measurement": "relative viability", "setting": "NCI-H460; first compound 0.1265 µM", "value": 0.466}, {"measurement": "relative viability", "setting": "NCI-H460; first compound 0.4 µM", "value": 0.379}, {"measurement": "relative viability", "setting": "NCI-H460; first compound 4 µM", "value": 0.335}, {"measurement": "relative viability", "setting": "NCI-H520; first compound 0.04 µM", "value": 0.613}, {"measurement": "relative viability", "setting": "NCI-H520; first compound 0.1265 µM", "value": 0.484}, {"measurement": "relative viability", "setting": "NCI-H520; first compound 0.4 µM", "value": 0.449}, {"measurement": "relative viability", "setting": "NCI-H520; first compound 4 µM", "value": 0.488}, {"measurement": "relative viability", "setting": "NCI-H596; first compound 0.04 µM", "value": 1.01}, {"measurement": "relative viability", "setting": "NCI-H596; first compound 0.1265 µM", "value": 1.11}, {"measurement": "relative viability", "setting": "NCI-H596; first compound 0.4 µM", "value": 1.11}, {"measurement": "relative viability", "setting": "NCI-H596; first compound 4 µM", "value": 0.798}, {"measurement": "relative viability", "setting": "NCI-H650; first compound 0.04 µM", "value": 0.346}, {"measurement": "relative viability", "setting": "NCI-H650; first compound 0.1265 µM", "value": 0.336}, {"measurement": "relative viability", "setting": "NCI-H650; first compound 0.4 µM", "value": 0.377}, {"measurement": "relative viability", "setting": "NCI-H650; first compound 4 µM", "value": 0.341}, {"measurement": "relative viability", "setting": "NCI-H661; first compound 0.04 µM", "value": 0.496}, {"measurement": "relative viability", "setting": "NCI-H661; first compound 0.1265 µM", "value": 0.534}, {"measurement": "relative viability", "setting": "NCI-H661; first compound 0.4 µM", "value": 0.623}, {"measurement": "relative viability", "setting": "NCI-H661; first compound 4 µM", "value": 0.65}, {"measurement": "relative viability", "setting": "NCI-H727; first compound 0.04 µM", "value": 1.14}, {"measurement": "relative viability", "setting": "NCI-H727; first compound 0.1265 µM", "value": 1}, {"measurement": "relative viability", "setting": "NCI-H727; first compound 0.4 µM", "value": 0.99}, {"measurement": "relative viability", "setting": "NCI-H727; first compound 4 µM", "value": 0.8}, {"measurement": "relative viability", "setting": "PC-3 [JPC-3]; first compound 0.04 µM", "value": 0.789}, {"measurement": "relative viability", "setting": "PC-3 [JPC-3]; first compound 0.1265 µM", "value": 0.841}, {"measurement": "relative viability", "setting": "PC-3 [JPC-3]; first compound 0.4 µM", "value": 0.854}, {"measurement": "relative viability", "setting": "PC-3 [JPC-3]; first compound 4 µM", "value": 0.781}]}]}
